Experimental findings from PubChem BioAssay (NCI) are described below.

The term TGI denotes the concentration giving total growth inhibition. Read a low TGI as greater sensitivity of the cells. By GI50 is commonly meant the concentration giving 50% growth inhibition.

Common to all, as to assay: DTP human tumour cell line panel, 48 h
Assay [1] relates to RXF 393 renal.
For assay [2], the system named is CAKI-1 renal.
Assay [3] has as its system TK-10 renal.
For assay [4], the system named is HL-60(TB) leukemia.
In assay [5] the test system is SR leukemia.
Assay [6] deals with NCI/ADR-RES ovarian.
In assay [7] the test system is MDA-MB-435.
For assay [8], the system named is SF-539 CNS.
Assay [9] deals with DU-145 prostate.
Assay [10] concerns PC-3 prostate.

Molecules are shown by their SMILES.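 Grown in 96-well plates, cells were treated for 48 hours with each compound at five concentrations. Insufficient inhibition: endpoint recorded as highest concentration tested. Abbreviation: GI50, concentration required for 50% inhibition of growth. TGI is the concentration that stops growth completely.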

For the compound `CN1NC(c2ccccc2)=C(C#N)C(=O)CC1c1ccc(F)cc1` (stereo not drawn), the TGI in [1], in assay [2], in assay [3], in assay [4] and in assay [5] was more than 100 µM in each case.

Regarding `Cn1c2cn[nH]c(=O)c2c2ccc3ccccc3c21`, the total growth inhibition concentration (TGI) in [6] was more than 100 µM; in assay [1] it was 62.9 µM; in [2], more than 100 µM; in [7], more than 100 µM; in [8] it was more than 100 µM; in [3], more than 100 µM. The TGI in assay [9], in assay [10], in assay [4] and in [5] was more than 100 µM throughout.

As for `COC(=O)c1ccc2c(c1)sc1nc(-c3ccc(OC)cc3)cn12`, the TGI in [6], in assay [1], in assay [2], in assay [7], in assay [8] and in assay [3] was more than 100 µM throughout. Further, the TGI in assay [9], in assay [10] and in assay [4] was more than 100 µM each time.

For `O=C(CSSCC(=O)OCCS(=O)(=O)Nc1ccc(Br)cc1)OCCS(=O)(=O)Nc1ccc(Br)cc1`, the TGI in assay [1] was found to be 16.8 µM; in assay [2], 68.4 µM; in [8] it was 32.8 µM; in assay [3], 87.8 µM; in assay [4], 38.7 µM.

For the compound `O=S(=O)(O)c1ccc2c(N=Nc3ccccc3)c(O)ccc2c1`, the TGI in [6], in [1], in assay [2], in assay [7], in assay [8] and in assay [3] was more than 100 µM throughout. Besides, the TGI in assay [9], in assay [10], in assay [4] and in assay [5] was more than 100 µM in each case.

With `Cc1cc2c(cc1Cl)SC(c1ccccc1O)NS2(=O)=O` (stereo not drawn), the concentration for total growth inhibition (TGI) in [6], in assay [1], in assay [2], in [7], in assay [8] and in [3] was more than 100 µM each time. The TGI in assay [9] is more than 100 µM; in [10], more than 100 µM; in [4], more than 100 µM; in [5] it was 77.3 µM.

Regarding `C/C(=C\C(=N\NC(=N)N)c1ccccc1)c1ccccc1`, the total growth inhibition concentration (TGI) is 10.1 µM in assay [6]; 8.42 µM in assay [1]; 1.59 µM in assay [2]; 2.97 µM in assay [7]; 1.85 µM in [8]; 14.1 µM in assay [3]. For the same compound, the TGI in assay [9] came to 9.49 µM; in assay [10], 3.21 µM; in assay [5] it was 6.59 µM.

On to `CC(C)(C)c1cc(-c2nc3ccc(N4CCN(CCO)CC4)cc3[nH]2)cc(C(C)(C)C)c1O`, for which the GI50 was more than 100 µM in assay [6]; 1.97 µM in assay [2]; 2.13 µM in assay [8]; 4.69 µM in assay [3]; 4.08 µM in assay [9]; 1.84 µM in assay [4]. Also, the GI50 in assay [5] is 2.77 µM. The TGI in assay [6] is more than 100 µM; in assay [2], 4.45 µM; in assay [8], 4.91 µM; in assay [3], more than 100 µM; in assay [9], more than 100 µM; in assay [4], 4.86 µM. Besides, the TGI in assay [5] is more than 100 µM.

In the case of `Cc1cn(Cc2cn(CC3OC(n4cc(C)c(=O)[nH]c4=O)CC3O)nn2)c(=O)[nH]c1=O` (stereo not drawn), the TGI in assay [6], in [1], in assay [2], in assay [7], in assay [8] and in [3] was more than 100 µM throughout. Besides, the TGI in assay [9] and in assay [10] was more than 100 µM throughout.

As for `COc1cccc(NC(=O)CC(=O)NN2C(=O)/C(=C/c3ccc(N(CCC#N)CCC#N)cc3)N=C2c2cc([N+](=O)[O-])ccc2Cl)c1`, the TGI in assay [1], in [2], in assay [8], in [3] and in assay [5] was more than 100 µM throughout.

Take `Cn1cc(-c2nnc(-c3ccc(Cl)cc3)[nH]c2=O)c2ccccc21`: the TGI was 8.03 µM in assay [6]; more than 22.1 µM in assay [1]; more than 100 µM in [2]; 1.4 µM in assay [7]; 42.7 µM in assay [3]; more than 51.8 µM in [9]. In addition, the TGI was more than 78.7 µM in assay [10], more than 24 µM in assay [4] and more than 100 µM in assay [5].

Take `C=C1CC2C3C=C(C)C4=CC(=O)CC[C@]4(C)C3CC[C@]2(C)[C@@]1(OC(C)=O)C(C)=O` (stereo partly drawn): the GI50 in [6] is 2.43 µM; in assay [1] it was 4.31 µM; in [2], 2.96 µM; in assay [3] it was more than 100 µM; in [9] it was more than 100 µM; in [10], 2.55 µM. In addition, the GI50 is 2.55 µM in [4] and 3.19 µM in assay [5]. Moreover, the TGI in [6], in assay [1], in assay [2], in [3], in [9] and in assay [10] was more than 100 µM in each case. For the same compound, the concentration for total growth inhibition (TGI) in assay [4] was 5.53 µM; in assay [5], more than 100 µM.

In the case of `CCOC(=O)/C(=C\NC(C)(C)CO)c1nc2ccccc2[nH]1`, the concentration for total growth inhibition (TGI) in assay [6], in assay [1], in assay [2], in assay [7], in [8] and in assay [3] was more than 100 µM in each case. Further, the TGI in assay [9], in [4] and in [5] was more than 100 µM in each case.

Turning to `Cc1ccc(C(=O)Nc2ncn(C3CC(O)C(CO)O3)c(=O)n2)cc1` (stereo not drawn), the TGI in assay [6], in assay [1], in assay [2] and in [8] was more than 100 µM throughout.
